Source: patent publication US20030195152A1, “Polymeric conjugates of antitumor agents” (priority 2000, published 2003)

System: human colon carcinoma (HT29)
Assay: Antitumor activity on human colon carcinoma (HT29) transplanted in nude mice
Assay type: in vivo
Conditions: for TI % (tumor inhibition %): calculated at day 46, HT29 sc in nude mice
Experimental: Campound (A1a) was tested on human colon carcinoma (HT29) transplanted in nude mice, in comparison with the free drug 7-ethyl-10-hydroxycamptothecin (12) by i.v. route. A1a was found non toxic at all tested doses and gave 98% tumor inhibition at the highest tested dose of 20 mg/kg (Table 1).

[1] = dose 10 mg/kg i.v. q4dx6, total dose 60 mg/kg
[2] = dose 20 mg/kg i.v. q4dx6, total dose 120 mg/kg
[3] = dose 30 mg/kg i.v. q4dx6, total dose 180 mg/kg
[4] = dose 40 mg/kg i.v. q4dx6, total dose 240 mg/kg

## CCc1c2c(nc3ccc(O)cc13)-c1cc3c(c(=O)n1C2)COC(=O)[C@]3(O)CC [Compound 12, 7-ethyl-10-hydroxycamptothecin, reference compound]
[1]
  Tox (number of mice died for toxicity/total number mice): 0/7
  TI % (tumor inhibition %): 67%
[2]
  Tox (number of mice died for toxicity/total number mice): 3/7
  TI % (tumor inhibition %): 97%

## Copolymer of N-(2-hydroxypropyl)methacryloylamide, 7-ethyl-10-hydroxy-20-O-[N-methacryloyl-6-aminohexanoyl-(methionyl-sulfoxide)-glycyl-(S-benzyl-cysteinyl)-leucyl-glycyl]camptothecin and N-(2-hydroxypropyl)methacryloylglycinamide [Compound A1a]
All tested doses, i.v., nude mice bearing HT29
  toxicity: non toxic
[1]
  Tox (number of mice died for toxicity/total number mice): 0/7
  TI % (tumor inhibition %): 85%
[2]
  Tox (number of mice died for toxicity/total number mice): 0/7
  TI % (tumor inhibition %): 98%
Dose 20 mg/kg i.v. q4dx6, total dose 120 mg/kg, listed as Ala
  TI % (tumor inhibition %): 97%
[3]
  Tox (number of mice died for toxicity/total number mice): 0/7
  TI % (tumor inhibition %): 97%
[4]
  Tox (number of mice died for toxicity/total number mice): 0/7
  TI % (tumor inhibition %): 97%
